{"source": "patent US20220235068A1", "about": "“TETRACYCLIC COMPOUNDS AS CDC7 INHIBITORS” (Chia Tai Tianqing Pharmaceutical Group Co., Ltd., priority 2019, published 2022)", "key": {"Cdc7/DBF4": {"biological_target": "T1, Cdc7/DBF4 (Homo sapiens, UniProt O00311)", "T1 construct": "purchased Promega", "T1 sequence (O00311 whole entry)": "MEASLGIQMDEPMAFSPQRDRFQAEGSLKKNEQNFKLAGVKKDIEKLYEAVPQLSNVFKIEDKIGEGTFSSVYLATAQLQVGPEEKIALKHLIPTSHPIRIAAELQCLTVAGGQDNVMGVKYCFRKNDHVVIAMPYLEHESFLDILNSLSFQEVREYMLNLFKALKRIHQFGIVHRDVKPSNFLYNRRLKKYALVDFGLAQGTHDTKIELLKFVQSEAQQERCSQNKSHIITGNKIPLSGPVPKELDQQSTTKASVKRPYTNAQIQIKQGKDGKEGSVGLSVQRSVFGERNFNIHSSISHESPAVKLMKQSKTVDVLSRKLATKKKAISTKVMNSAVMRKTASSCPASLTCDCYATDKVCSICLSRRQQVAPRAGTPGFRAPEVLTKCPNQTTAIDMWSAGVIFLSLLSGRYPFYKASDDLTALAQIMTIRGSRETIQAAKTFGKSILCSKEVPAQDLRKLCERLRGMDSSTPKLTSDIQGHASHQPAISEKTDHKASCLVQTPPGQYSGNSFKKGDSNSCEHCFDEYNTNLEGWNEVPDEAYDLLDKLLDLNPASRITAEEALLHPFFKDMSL", "T1 sequence (Q9UBU7 whole entry partner)": "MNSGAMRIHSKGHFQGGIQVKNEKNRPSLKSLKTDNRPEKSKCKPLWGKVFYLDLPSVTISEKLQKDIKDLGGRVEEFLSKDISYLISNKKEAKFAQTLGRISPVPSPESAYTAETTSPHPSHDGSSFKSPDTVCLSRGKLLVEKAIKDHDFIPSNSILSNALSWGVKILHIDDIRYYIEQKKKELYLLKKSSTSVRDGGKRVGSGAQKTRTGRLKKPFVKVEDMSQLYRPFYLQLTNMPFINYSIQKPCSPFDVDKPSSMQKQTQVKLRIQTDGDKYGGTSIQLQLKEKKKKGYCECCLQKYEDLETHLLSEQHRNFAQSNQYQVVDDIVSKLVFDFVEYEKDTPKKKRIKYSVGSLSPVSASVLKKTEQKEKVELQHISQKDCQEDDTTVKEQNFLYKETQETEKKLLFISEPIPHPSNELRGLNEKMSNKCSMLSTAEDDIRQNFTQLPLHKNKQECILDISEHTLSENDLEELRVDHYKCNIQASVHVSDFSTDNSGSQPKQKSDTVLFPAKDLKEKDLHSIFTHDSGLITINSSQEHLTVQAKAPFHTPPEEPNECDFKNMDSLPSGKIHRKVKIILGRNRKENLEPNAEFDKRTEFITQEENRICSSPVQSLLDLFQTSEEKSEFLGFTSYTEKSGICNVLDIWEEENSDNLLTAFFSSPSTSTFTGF", "assay": "Inhibitory effect against activity of Cdc7/DBF4 (ADP-Glo kinase detection kit)", "type": "biochemical", "settings": "10 μM ATP, 25° C., 60 min", "method": "Cdc7/DBF4 kinase detection kit purchased from Promega; and\n(§1) Nivo multi-marker analyzer (PerkinElmer).\nAn enzyme, a substrate, adenosine triphosphate and an inhibitor were diluted with the kinase buffer in the kit. A test compound was serially 5-fold diluted to an 8th concentration, i.e., from 10 μM to 0.13 nM, with the DMSO concentration being 5%, and the duplicate well experiment was set up. To a microplate were added 1 μL of inhibitors of various concentration gradients, 2 μL of CDCl7/DBF4 kinase (6.25 ng), 2 μL of a mixture of substrate and ATP (10 μM adenosine triphosphate, 0.2 μg/μL substrate), and the final concentration gradient of the compound was diluted from 2 μM to 0.025 nM. The reaction system was left reacting at 25° C. for 60 min. After the reaction was completed, 5 μL of ADP-Glo reagent was added to each well, and the reaction was continued at 25° C. for 40 min. After the reaction was completed, 10 μL of the kinase detection reagent was added to each well. After 30 min of reaction at 25° C., the chemiluminescence was read using the multi-marker analyzer with an integration time of 0.5 s.\nThe original data were converted to inhibition using the equation (Sample−Min)/(Max−Min)×100%, and the IC50 value was then curve fitted using four parameters (obtained from the “log(inhibitor) vs. response-Variableslope” model in GraphPadPrism). Table 1 provides the enzymatic inhibitory activity of the compounds disclosed herein against Cdc7/DBF4."}, "Colo205 cells": {"system": "Colo205 cells", "assay": "Inhibitory effect against Colo205 cell proliferation (CellTiter-Glo)", "type": "cell-based", "settings": "incubation 3 days", "method": "1640 medium; fetal bovine serum; penicillin/streptomycin antibiotics purchased from Wisent;\nCellTiter-Glo (chemiluminescence detection reagent for cell viability) reagent purchased from Promega;\nCOL0205 cell line purchased from Wuhan Procell Life Science&Technology Co., Ltd; and\nas §1\nCOL0205 cells were plated on to white 96-well plates by adding 80 μL of cell suspension (containing 3000 COL0205 cells) to each well. The cell plate was incubated in a CO2 incubator overnight.\nA test compound was serially 3-fold diluted to an 8th concentration, i.e., from 2 mM to 920 nM, and the duplicate well experiment was set up. 78 μL of medium was added to an intermediate plate, 2 μL of the serially diluted compound was transferred to corresponding wells of the intermediate plate, and after mixing, the mixture was transferred to the cell plate at 20 μL per well. The concentration of the compound transferred to the cell plate ranged from 10 μM to 4.57 nM. The cell plate was incubated in a CO2 incubator for 3 days. Another cell plate was provided for reading signal values on the day of compound addition and these values were used as […] in data analysis. The chemiluminescence detection reagent for cell viability was added to this cell plate at 25 μL per well and the luminescence signals were stabilized by incubation at room temperature for 10 min. Readings were taken using the multi-marker analyzer. The chemiluminescence detection reagent for cell viability was added to the cell plate at 25 μL per well and the luminescence signals were stabilized by incubation at room temperature for 10 min. Readings were taken using the multi-marker analyzer.\nThe original data were converted to inhibition using the equation (Sample−Min)/(Max−Min)×100%, and the IC50 value was then curve fitted using four parameters (obtained from the “log(inhibitor) vs. response-Variableslope” model in GraphPadPrism). Table 2 provides the inhibitory activity of the compounds disclosed herein against COL0205 cell proliferation."}, "[1]": {"system": "human colorectal cancer cell SW620", "assay": "In vivo pharmacodynamic study in subcutaneous xenograft tumor nude mouse model of SW620", "settings": "BID, p.o.", "method": "Human colorectal cancer cell SW620 cells of the 7th passage were cultured in an L-15 medium containing 10% fetal bovine serum, 100 U/mL penicillin and 100 μg/mL streptomycin through in vitro monolayer culture in an incubator at 37° C./[…] for 4 passages with conventional medium replacement. At a cell saturation of 80-90%, the cells were digested with pancreatin-EDTA, counted and resuspended in PBS at a density of 5×10^6 cells/100 μL.\nCell inoculation: Each mouse was inoculated on the right cervical dorsum with 0.1 mL of the cell suspension of 5×10^6 SW620 cells in PBS. At an average tumor volume up to about 134 mm^3, the mice were randomly grouped and administrated.\nTumor diameters were measured twice weekly using a vernier caliper. The tumor volume was calculated using the following formula: V=0.5 a×b^2, where a and b represent the long diameter and short diameter of the tumor, respectively.\nThe anti-tumor therapeutic effect of the compound was evaluated by TGI (%) or relative tumor proliferation rate T/C (%). Relative tumor proliferation rate T/C (%)=TRTV/CRTV×100% (TRTV: RTV of treatment group; CRTV: RTV of negative control group). Relative tumor volumes (RTVs) were calculated from the tumor measurement results using the following formula: RTV=Vt/VO, where VO is the average tumor volume measured at the time of grouping (i.e., DO), Vt is the average tumor volume measured at a certain measurement, and TRTV and CRTV are taken from the data measured on the same day.\nTGI (%), reflects the tumor growth inhibition rate. TGI (%)=[(1−(average tumor volume at the end of administration in a treatment group−average tumor volume at the start of administration of the treatment group))/(average tumor volume at the end of treatment of the vehicle control group−average tumor volume at the start of treatment of the vehicle control group)]×100%.\nAfter day 22 of the grouping, mice were euthanized, plasma and tumors were sampled and tumors were weighed and photographed."}, "[2]": {"assay": "Single-dose pharmacokinetic study in mice", "type": "in vivo", "settings": "male CD-1 mice", "method": "To evaluate the pharmacokinetic behavior by using male CD-1 mice as test animals and determining the drug concentrations of the compounds in the plasma after single-dose administration. Healthy adult male CD-1 mice were selected for intragastric administration. A compound was mixed with an appropriate amount of 5% DMSO/95% (10% hydroxypropyl-β-cyclodextrin), vortexed and sonicated to prepare a 1 mg/mL clear solution for later use. After the mice were administered intravenously at 2 mg/kg and orally at 10 mg/kg, whole blood was collected at certain time points, and plasma was separated. After pretreatment of the samples, the drug concentration was measured by LC-MS/MS, and pharmacokinetic parameters were calculated using Phoenix WinNonlin software."}, "[3]": {"settings": "mouse, plasma, IV: 2 mg/kg, PO: 10 mg/kg"}}, "note": "Structures can show the parent of a compound that is named as a salt. Where two headings read alike, the source gives them in different places.", "data": [{"smiles": "O=c1[nH]c([C@H]2CC3CCN2CC3)nc2c3c(sc12)-c1c[nH]nc1CCC3", "note": "(single isomer, unassigned) [Compound 1-1 hydrochloride]", "values": [{"measurement": "IC50", "setting": "Cdc7/DBF4", "value": 3.02, "unit": "nM"}, {"measurement": "IC50", "setting": "Colo205 cells", "value": 13.8, "unit": "nM"}, {"measurement": "Tumor volume (Day 1)", "setting": "[1]; 2.5 mg/kg", "value": "134 ± 13", "unit": "mm^3"}, {"measurement": "RTV (Day 21)", "setting": "[1]; 2.5 mg/kg", "value": 1.88}, {"measurement": "T/C (%) (Day 21)", "setting": "[1]; 2.5 mg/kg", "value": 22, "unit": "%"}, {"measurement": "TGI (%) (Day 21)", "setting": "[1]; 2.5 mg/kg", "value": 89, "unit": "%"}, {"measurement": "Tumor volume (Day 21)", "setting": "[1]; 2.5 mg/kg", "value": "237 ± 27", "unit": "mm^3"}, {"measurement": "Tumor volume (Day 1)", "setting": "[1]; 5 mg/kg", "value": "134 ± 15", "unit": "mm^3"}, {"measurement": "RTV (Day 21)", "setting": "[1]; 5 mg/kg", "value": 0.93}, {"measurement": "T/C (%) (Day 21)", "setting": "[1]; 5 mg/kg", "value": 11, "unit": "%"}, {"measurement": "TGI (%) (Day 21)", "setting": "[1]; 5 mg/kg", "value": 100, "unit": "%"}, {"measurement": "Tumor volume (Day 21)", "setting": "[1]; 5 mg/kg", "value": "133 ± 32", "unit": "mm^3"}, {"measurement": "Tumor volume (Day 1)", "setting": "[1]; 7.5 mg/kg", "value": "134 ± 14", "unit": "mm^3"}, {"measurement": "RTV (Day 21)", "setting": "[1]; 7.5 mg/kg", "value": 0.31}, {"measurement": "T/C (%) (Day 21)", "setting": "[1]; 7.5 mg/kg", "value": 4, "unit": "%"}, {"measurement": "TGI (%) (Day 21)", "setting": "[1]; 7.5 mg/kg", "value": 108, "unit": "%"}, {"measurement": "Tumor volume (Day 21)", "setting": "[1]; 7.5 mg/kg", "value": "53 ± 16", "unit": "mm^3"}, {"measurement": "Maximum concentration", "setting": "[2]; IV: 2 mg/kg, PO: 10 mg/kg", "value": 2230, "unit": "nM"}, {"measurement": "AUC(0-t)", "setting": "[2]; mouse, plasma, IV 2 mg/kg, read-out: AUC0-last (intravenous injection)", "value": 2.45, "unit": "µM·h"}, {"measurement": "bioavailability", "setting": "[2]; [3]", "value": 71.4, "unit": "%"}, {"measurement": "clearance", "setting": "[2]; [3]", "value": 35.2, "unit": "mL/min/kg"}, {"measurement": "half-life", "setting": "[2]; [3]", "value": 4.03, "unit": "h"}, {"measurement": "Vd", "setting": "[2]; mouse, plasma, IV: 2 mg/kg, PO: 10 mg/kg, read-out: Apparent volume of distribution", "value": 4.13, "unit": "L/kg"}, {"measurement": "AUC(0-t)", "setting": "[2]; mouse, plasma, PO 10 mg/kg, read-out: AUC0-last (oral)", "value": 9.08, "unit": "µM·h"}]}]}
